Source: the supplement of paper PMC11451515

Experiments:
Conditions in all cases: 48 h
P12-Ichikawa [1] = test: AUC of viability dose-response curve (% viability x log10 dose units); higher = less sensitive
How it was run: (§1)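 Leukemia cells adapted to each medium were seeded at 500 or 1000 cells/well in 1536-well plates and dosed with library compounds in DMSO at 11 threefold doses from 47 μM to 0.79 nM for 48 h at 37°C. CellTiter-Glo One luminescence was normalised per plate to DMSO and cell-free wells, then fitted with a four-parameter log-logistic model over log10 doses. Area under the curve was taken from this fit by the trapezoidal rule, with curves above full viability scaled and curves failing quality control removed.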

SEM cells [2] = test: as above
How it was run: as §1

NOMO1 [3] = test: as above
How it was run: as §1

P12-Ichikawa [4] = test: cell viability relative to DMSO control; higher = less cytotoxic
How it was run: (§2)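 NOMO1 or SEM (500 cells/well) or P12-Ichikawa (1000 cells/well) leukemia cells were adapted for at least four passages in each medium. They were seeded in 1536-well plates (5 μl) and pin-dosed with library compounds in DMSO over an 11-point threefold series, 47 μM to 0.79 nM. CellTiter-Glo One luminescence was read after 48 h at 37°C. Viability is the per-plate percentage relative to DMSO wells, with cell-free wells as background.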

SEM cells [5] = test: as above
How it was run: as §2

NOMO1 [6] = test: as above
How it was run: as §2

C[N]1C=C(C=N1)C2=C3\C=N/NC(=O)C4=C3C(=CC(=C4)NC(=O)[C@H](N)C5CCCCC5)[NH]2
AUC of viability dose-response curve
Conditions	NOMO1 [3]	P12-Ichikawa [1]	SEM cells [2]
HPLM + 10% dialyzed FBS	403	395	309
RPMI 5 mM glucose + 10% FBS	390	387	334
RPMI 5 mM glucose + 10% dialyzed FBS	384	371	283

cell viability [%]
Conditions	NOMO1 [6]	P12-Ichikawa [4]	SEM cells [5]
HPLM + 10% dialyzed FBS, 0.000781 µM	99.8	103	87.7
HPLM + 10% dialyzed FBS, 0.00234 µM	111	103	56.3
HPLM + 10% dialyzed FBS, 0.00702 µM	97.7	99.7	85.5
HPLM + 10% dialyzed FBS, 0.0211 µM	91.1	100	101
HPLM + 10% dialyzed FBS, 0.0632 µM	104	99.7	79
HPLM + 10% dialyzed FBS, 0.19 µM	101	103	90.8
HPLM + 10% dialyzed FBS, 0.569 µM	91.6	94.5	68
HPLM + 10% dialyzed FBS, 1.71 µM	78.3	81.1	58.3
HPLM + 10% dialyzed FBS, 5.12 µM	72.6	65.5	36.5
HPLM + 10% dialyzed FBS, 15.4 µM	35.7	45.1	20.7
HPLM + 10% dialyzed FBS, 46.1 µM	36.6	12.3	11.6
RPMI 5 mM glucose + 10% FBS, 0.000781 µM	95.1	98.4	101
RPMI 5 mM glucose + 10% FBS, 0.00234 µM	97.2	101	67.1
RPMI 5 mM glucose + 10% FBS, 0.00702 µM	93.5	99.1	94.4
RPMI 5 mM glucose + 10% FBS, 0.0211 µM	87	99.9	99.2
RPMI 5 mM glucose + 10% FBS, 0.0632 µM	100	97.3	92.9
RPMI 5 mM glucose + 10% FBS, 0.19 µM	97.9	98.5	103
RPMI 5 mM glucose + 10% FBS, 0.569 µM	84.3	92.7	81.3
RPMI 5 mM glucose + 10% FBS, 1.71 µM	86.4	85.3	50.8
RPMI 5 mM glucose + 10% FBS, 5.12 µM	80.2	61.7	34.5
RPMI 5 mM glucose + 10% FBS, 15.4 µM	26	21.8	22
RPMI 5 mM glucose + 10% FBS, 46.1 µM	29.1	7.78	8.73
RPMI 5 mM glucose + 10% dialyzed FBS, 0.000781 µM	101	96.2	79.8
RPMI 5 mM glucose + 10% dialyzed FBS, 0.00234 µM	90.4	98	50.8
RPMI 5 mM glucose + 10% dialyzed FBS, 0.00702 µM	105	95.2	95.1
RPMI 5 mM glucose + 10% dialyzed FBS, 0.0211 µM	89.7	90.5	86.2
RPMI 5 mM glucose + 10% dialyzed FBS, 0.0632 µM	90.7	94.7	89.5
RPMI 5 mM glucose + 10% dialyzed FBS, 0.19 µM	87	102	90
RPMI 5 mM glucose + 10% dialyzed FBS, 0.569 µM	95.4	85.4	59.3
RPMI 5 mM glucose + 10% dialyzed FBS, 1.71 µM	94.1	79.6	42.2
RPMI 5 mM glucose + 10% dialyzed FBS, 5.12 µM	60.3	58.8	25
RPMI 5 mM glucose + 10% dialyzed FBS, 15.4 µM	20.5	18.4	15.4
RPMI 5 mM glucose + 10% dialyzed FBS, 46.1 µM	29	11.5	7.21

O=C(Nc1cc(Cl)cc2c1[nH]c1cnccc12)c1cccnc1
AUC of viability dose-response curve
Conditions	NOMO1 [3]	P12-Ichikawa [1]	SEM cells [2]
HPLM + 10% dialyzed FBS	467	471	468
RPMI 5 mM glucose + 10% FBS	477	461	452
RPMI 5 mM glucose + 10% dialyzed FBS	471	457	437

cell viability [%]
Conditions	NOMO1 [6]	P12-Ichikawa [4]	SEM cells [5]
HPLM + 10% dialyzed FBS, 0.000781 µM	–	116	121
HPLM + 10% dialyzed FBS, 0.00234 µM	–	121	121
HPLM + 10% dialyzed FBS, 0.00702 µM	–	123	116
HPLM + 10% dialyzed FBS, 0.0211 µM	–	121	134
HPLM + 10% dialyzed FBS, 0.0632 µM	–	121	124
HPLM + 10% dialyzed FBS, 0.19 µM	–	122	122
HPLM + 10% dialyzed FBS, 0.569 µM	–	127	118
HPLM + 10% dialyzed FBS, 1.71 µM	–	115	141
HPLM + 10% dialyzed FBS, 5.12 µM	–	121	133
HPLM + 10% dialyzed FBS, 15.4 µM	–	113	127
HPLM + 10% dialyzed FBS, 46.1 µM	–	106	113
RPMI 5 mM glucose + 10% FBS, 0.000781 µM	–	124	109
RPMI 5 mM glucose + 10% FBS, 0.00234 µM	–	118	108
RPMI 5 mM glucose + 10% FBS, 0.00702 µM	–	118	96.3
RPMI 5 mM glucose + 10% FBS, 0.0211 µM	–	129	117
RPMI 5 mM glucose + 10% FBS, 0.0632 µM	–	119	126
RPMI 5 mM glucose + 10% FBS, 0.19 µM	–	116	125
RPMI 5 mM glucose + 10% FBS, 0.569 µM	–	117	128
RPMI 5 mM glucose + 10% FBS, 1.71 µM	–	118	129
RPMI 5 mM glucose + 10% FBS, 5.12 µM	–	114	138
RPMI 5 mM glucose + 10% FBS, 15.4 µM	–	114	121
RPMI 5 mM glucose + 10% FBS, 46.1 µM	–	109	124
RPMI 5 mM glucose + 10% dialyzed FBS, 0.000781 µM	118	–	113
RPMI 5 mM glucose + 10% dialyzed FBS, 0.00234 µM	114	–	107
RPMI 5 mM glucose + 10% dialyzed FBS, 0.00702 µM	124	–	109
RPMI 5 mM glucose + 10% dialyzed FBS, 0.0211 µM	110	–	108
RPMI 5 mM glucose + 10% dialyzed FBS, 0.0632 µM	110	–	100
RPMI 5 mM glucose + 10% dialyzed FBS, 0.19 µM	124	–	98.5
RPMI 5 mM glucose + 10% dialyzed FBS, 0.569 µM	131	–	116
RPMI 5 mM glucose + 10% dialyzed FBS, 1.71 µM	123	–	125
RPMI 5 mM glucose + 10% dialyzed FBS, 5.12 µM	117	–	123
RPMI 5 mM glucose + 10% dialyzed FBS, 15.4 µM	109	–	128
RPMI 5 mM glucose + 10% dialyzed FBS, 46.1 µM	109	–	117

CC[C@H](NC1=C2N=C[NH]C2=NC=N1)C/3=N/C4=C(C(=CC=C4)F)C(=O)N3C5=CC=CC=C5
AUC of viability dose-response curve
Conditions	NOMO1 [3]	P12-Ichikawa [1]	SEM cells [2]
HPLM + 10% dialyzed FBS	433	436	411
RPMI 5 mM glucose + 10% FBS	450	395	430
RPMI 5 mM glucose + 10% dialyzed FBS	432	401	442

cell viability [%]
Conditions	NOMO1 [6]	P12-Ichikawa [4]	SEM cells [5]
HPLM + 10% dialyzed FBS, 0.000781 µM	–	125	94.9
HPLM + 10% dialyzed FBS, 0.00234 µM	–	118	118
HPLM + 10% dialyzed FBS, 0.00702 µM	–	122	133
HPLM + 10% dialyzed FBS, 0.0211 µM	–	131	120
HPLM + 10% dialyzed FBS, 0.0632 µM	–	133	114
HPLM + 10% dialyzed FBS, 0.19 µM	–	120	97.2
HPLM + 10% dialyzed FBS, 0.569 µM	–	115	87.4
HPLM + 10% dialyzed FBS, 1.71 µM	–	118	106
HPLM + 10% dialyzed FBS, 5.12 µM	–	101	81.7
HPLM + 10% dialyzed FBS, 15.4 µM	–	88.9	73.6
HPLM + 10% dialyzed FBS, 46.1 µM	–	56.3	52.1
RPMI 5 mM glucose + 10% FBS, 0.000781 µM	116	114	79.2
RPMI 5 mM glucose + 10% FBS, 0.00234 µM	119	115	94.8
RPMI 5 mM glucose + 10% FBS, 0.00702 µM	139	118	112
RPMI 5 mM glucose + 10% FBS, 0.0211 µM	122	120	105
RPMI 5 mM glucose + 10% FBS, 0.0632 µM	125	128	111
RPMI 5 mM glucose + 10% FBS, 0.19 µM	116	104	108
RPMI 5 mM glucose + 10% FBS, 0.569 µM	113	86.6	88.2
RPMI 5 mM glucose + 10% FBS, 1.71 µM	113	94.7	88.9
RPMI 5 mM glucose + 10% FBS, 5.12 µM	111	78.2	84.5
RPMI 5 mM glucose + 10% FBS, 15.4 µM	107	61.9	57.6
RPMI 5 mM glucose + 10% FBS, 46.1 µM	76.9	50.2	53.1
RPMI 5 mM glucose + 10% dialyzed FBS, 0.000781 µM	125	124	90.2
RPMI 5 mM glucose + 10% dialyzed FBS, 0.00234 µM	121	123	110
RPMI 5 mM glucose + 10% dialyzed FBS, 0.00702 µM	123	125	132
RPMI 5 mM glucose + 10% dialyzed FBS, 0.0211 µM	125	132	120
RPMI 5 mM glucose + 10% dialyzed FBS, 0.0632 µM	133	131	116
RPMI 5 mM glucose + 10% dialyzed FBS, 0.19 µM	110	115	84.2
RPMI 5 mM glucose + 10% dialyzed FBS, 0.569 µM	117	99.7	116
RPMI 5 mM glucose + 10% dialyzed FBS, 1.71 µM	114	98.7	110
RPMI 5 mM glucose + 10% dialyzed FBS, 5.12 µM	100	91.7	92.8
RPMI 5 mM glucose + 10% dialyzed FBS, 15.4 µM	82.2	70.7	80.1
RPMI 5 mM glucose + 10% dialyzed FBS, 46.1 µM	57	51.9	57.3
